Test results as given in US9976141B2, “Compositions and methods for inhibiting gene expression of Hif2alpha” (Arrowhead Madison Inc., priority 2015, dated 2018).
Strand notation (5' to 3'): a small letter for the sugar, then the base; units joined by * are phosphorothioate-linked, units joined directly phosphodiester-linked; [ ] holds rarer units or linkages, { } end groups; capitals alone tell only the bases. d = 2'-deoxy (DNA); m = 2'-O-methyl; f = 2'-fluoro

System: human EPAS1 (Hif2α) cDNA in psiCHECK2 (Renilla luciferase/EPAS1 fusion mRNA) in Hep3B cells
Assay: Efficacy screen of Hif2α RNAi triggers in vitro, dual-luciferase reporter assay (1 nM and 0.1 nM)
Assay type: cell-based
Details: Hep3B cells co-transfected with EPAS1-psiCHECK2, Renilla luciferase normalized to firefly luciferase
Excerpt: Candidate sequences were identified by in silico analysis and screened as chemically modified canonical siRNAs in vitro. For screening purposes, the human EPAS1 (Hif2α) cDNA sequence (accession #NM 001430) was synthesized and cloned (DNA 2.0, Menlo Park, Calif.) into a commercially-available reporter-based screening plasmid, psiCHECK2 (Promega, Madison, Wis.) which generated a Renilla luciferase/EPAS1 fusion mRNA. For RNAi trigger efficacy evaluation, Hep3B cells, a human hepatocellular carcinoma line, were plated at 10,000 cells per well in 96-well format. Each of the 187 EPAS1 RNAi triggers, in two subsets, was co-transfected at two concentrations, 1 nM and 0.1 nM, with 25 ng EPAS1-psiCHECK2 plasmid DNA per well and 0.2 μL LipoFectamine 2000 (Life Technologies) per well. Gene knockdown was determined by measuring Renilla luciferase levels normalized to the levels of constitutively-expressed firefly luciferase, also present on the psiCHECK-2 plasmid, using the Dual Luciferase Reporter Assay (Promega, Madison, Wis.) Table 5.

Row | Substance | Relative Rluc-Hif2α (0.1 nM RNAi trigger) | Relative Rluc-Hif2α (1 nM RNAi trigger)
1 | 2257 (sense fGmGfAmUfGmAfAmGfUmGfCmAfCmGfGmUfCmAfAdT; antisense dTfUmGfAmCfCmGfUmGfCmAfCmUfUmCfAmUfCmCdT*dT; siRNA) [compound 2257] | 0.647 ± 0.127 | 0.802 ± 0.044
2 | 2258 (sense fCmAfCmGfGmUfCmAfCmCfAmAfCmAfGmAfGmGfAdT; antisense dTfCmCfUmCfUmGfUmUfGmGfUmGfAmCfCmGfUmGdT*dT; siRNA) [compound 2258] | 0.882 ± 0.098 | 0.972 ± 0.168
3 | 2259 (sense fUmCfAmCfCmAfAmCfAmGfAmGfGmCfCmGfUmAfAdT; antisense dTfUmAfCmGfGmCfCmUfCmUfGmUfUmGfGmUfGmAdT*dT; siRNA) [compound 2259] | 0.743 ± 0.086 | 0.836 ± 0.110
4 | 2260 (sense fCmAfCmCfAmAfCmAfGmAfGmGfCmCfGmUfAmCfAdT; antisense dTfGmUfAmCfGmGfCmCfUmCfUmGfUmUfGmGfUmGdT*dT; siRNA) [compound 2260] | 0.861 ± 0.031 | 1.030 ± 0.187
5 | 2261 (sense fAmGfGmCfCmGfUmAfCmUfGmUfCmAfAmCfCmUfAdT; antisense dTfAmGfGmUfUmGfAmCfAmGfUmAfCmGfGmCfCmUdT*dT; siRNA) [compound 2261] | 0.568 ± 0.065 | 0.657 ± 0.067
6 | 2262 (sense fUmCfCmUfCmAfCmAfAmUfAmGfUmCfUmGfUmGfAdT; antisense dTfCmAfCmAfGmAfCmUfAmUfUmGfUmGfAmGfGmAdT*dT; siRNA) [compound 2262] | 0.755 ± 0.031 | 0.277 ± 0.071
7 | 2263 (sense fAmAfUmAfGmUfCmUfGmUfGmUfGmGfCmUfAmCfAdT; antisense dTfGmUfAmGfCmCfAmCfAmCfAmGfAmCfUmAfUmUdT*dT; siRNA) [compound 2263] | 1.126 ± 0.083 | 0.875 ± 0.059
8 | 2264 (sense fCmAfGmAfAmCfUmGfAmUfUmGfGmUfUmAfCmCfAdT; antisense dTfGmGfUmAfAmCfCmAfAmUfCmAfGmUfUmCfUmGdT*dT; siRNA) [compound 2264] | 0.381 ± 0.023 | 0.183 ± 0.019
9 | 2265 (sense fAmGfAmAfCmUfGmAfUmUfGmGfUmUfAmCfCmAfAdT; antisense dTfUmGfGmUfAmAfCmCfAmAfUmCfAmGfUmUfCmUdT*dT; siRNA) [compound 2265] | 0.448 ± 0.042 | 0.186 ± 0.045
10 | 2266 (sense fCmUfGmAfUmUfGmGfUmUfAmCfCmAfCmCfCmUfAdT; antisense dTfAmGfGmGfUmGfGmUfAmAfCmCfAmAfUmCfAmGdT*dT; siRNA) [compound 2266] | 0.808 ± 0.062 | 0.368 ± 0.046
11 | 2267 (sense fUmUfGmGfCmCfGmCfUmCfAmGfCmCfUmAfUmGfAdT; antisense dTfCmAfUmAfGmGfCmUfGmAfGmCfGmGfCmCfAmAdT*dT; siRNA) [compound 2267] | 1.029 ± 0.104 | 0.651 ± 0.049
12 | 2268 (sense fUmAfUmGfAmAfUmUfCmUfAmCfCmAfUmGfCmGfAdT; antisense dTfCmGfCmAfUmGfGmUfAmGfAmAfUmUfCmAfUmAdT*dT; siRNA) [compound 2268] | 0.409 ± 0.023 | 0.210 ± 0.037
13 | 2269 (sense fAmUfGmAfAmUfUmCfUmAfCmCfAmUfGmCfGmCfAdT; antisense dTfGmCfGmCfAmUfGmGfUmAfGmAfAmUfUmCfAmUdT*dT; siRNA) [compound 2269] | 0.530 ± 0.097 | 0.302 ± 0.080
14 | 2270 (sense fUmGfAmAfUmUfCmUfAmCfCmAfUmGfCmGfCmUfAdT; antisense dTfAmGfCmGfCmAfUmGfGmUfAmGfAmAfUmUfCmAdT*dT; siRNA) [compound 2270] | 0.658 ± 0.149 | 0.613 ± 0.147
15 | 2271 (sense fGmAfAmUfUmCfUmAfCmCfAmUfGmCfGmCfUmAfAdT; antisense dTfUmAfGmCfGmCfAmUfGmGfUmAfGmAfAmUfUmCdT*dT; siRNA) [compound 2271] | 1.056 ± 0.291 | 0.930 ± 0.094
16 | 2272 (sense fAmAfUmUfCmUfAmCfCmAfUmGfCmGfCmUfAmGfAdT; antisense dTfCmUfAmGfCmGfCmAfUmGfGmUfAmGfAmAfUmUdT*dT; siRNA) [compound 2272] | 1.028 ± 0.281 | 0.864 ± 0.197
17 | 2273 (sense fUmCfUmAfCmCfAmUfGmCfGmCfUmAfGmAfCmUfAdT; antisense dTfAmGfUmCfUmAfGmCfGmCfAmUfGmGfUmAfGmAdT*dT; siRNA) [compound 2273] | 0.574 ± 0.033 | 0.588 ± 0.057
18 | 2274 (sense fAmUfGmCfGmCfUmAfGmAfCmUfCmCfGmAfGmAfAdT; antisense dTfUmCfUmCfGmGfAmGfUmCfUmAfGmCfGmCfAmUdT*dT; siRNA) [compound 2274] | 0.870 ± 0.108 | 0.506 ± 0.074
19 | 2275 (sense fUmGfCmGfCmUfAmGfAmCfUmCfCmGfAmGfAmAfAdT; antisense dTfUmUfCmUfCmGfGmAfGmUfCmUfAmGfCmGfCmAdT*dT; siRNA) [compound 2275] | 0.515 ± 0.264 | 0.464 ± 0.048
20 | 2276 (sense fGmUfAmAfGmUfGmGfCmCfAmGfUmAfCmCfGmGfAdT; antisense dTfCmCfGmGfUmAfCmUfGmGfCmCfAmCfUmUfAmCdT*dT; siRNA) [compound 2276] | 0.543 ± 0.029 | 0.330 ± 0.080
21 | 2277 (sense fUmAfAmGfUmGfGmCfCmAfGmUfAmCfCmGfGmAfAdT; antisense dTfUmCfCmGfGmUfAmCfUmGfGmCfCmAfCmUfUmAdT*dT; siRNA) [compound 2277] | 0.625 ± 0.384 | 0.702 ± 0.091
22 | 2278 (sense fCmCfAmGfUmAfCmCfGmGfAmUfGmCfUmCfGmCfAdT; antisense dTfGmCfGmAfGmCfAmUfCmCfGmGfUmAfCmUfGmGdT*dT; siRNA) [compound 2278] | 0.947 ± 0.044 | 0.564 ± 0.070
23 | 2279 (sense fAmGfUmAfCmCfGmGfAmUfGmCfUmCfGmCfAmAfAdT; antisense dTfUmUfGmCfGmAfGmCfAmUfCmCfGmGfUmAfCmUdT*dT; siRNA) [compound 2279] | 0.506 ± 0.086 | 0.280 ± 0.042
24 | 2280 (sense fUmAfCmCfGmGfAmUfGmCfUmCfGmCfAmAfAmGfAdT; antisense dTfCmUfUmUfGmCfGmAfGmCfAmUfCmCfGmGfUmAdT*dT; siRNA) [compound 2280] | 0.871 ± 0.147 | 0.911 ± 0.086
25 | 2281 (sense fUmGfCmUfCmGfCmAfAmAfGmCfAmUfGmGfGmGfAdT; antisense dTfCmCfCmCfAmUfGmCfUmUfUmGfCmGfAmGfCmAdT*dT; siRNA) [compound 2281] | 0.914 ± 0.177 | 0.651 ± 0.041
26 | 2282 (sense fCmGfCmAfAmAfGmCfAmUfGmGfGmGfGmCfUmAfAdT; antisense dTfUmAfGmCfCmCfCmCfAmUfGmCfUmUfUmGfCmGdT*dT; siRNA) [compound 2282] | 1.209 ± 0.132 | 0.824 ± 0.155
